# Assay results as given in publication PMC6874683, “Pyrrothiogatain acts as an inhibitor of GATA family proteins and inhibits Th2 cell differentiation in vitro” (Scientific Reports, 2019).
# “And” between values parts separate entries of the source, which are not always exact repeats. Identical values can stand only once.
# Columns and labels:
# [1] = system: GATA3 binding to Th2 cytokine gene locus; experiment: Chromatin immunoprecipitation with anti-GATA3 antibody in Th2 cells; type: cell-based, mouse; conditions: naive CD4+ T cells, Th2 conditions, 80 µM, 2 days
# Procedure: GATA3 has been reported to bind to Th2 cytokine gene locus, such as IL-4 VA enhancer, IL-4 intron enhancer, conserved Gata3-response element (CGRE)[26] and IL-5 promoter[27] regions in Th2 cells. We investigated whether pyrrothiogatain inhibited GATA3 binding to Th2 cytokine gene locus. Naive CD4^+ T cells were cultured under Th2 conditions in the presence or absence of 80 µM pyrrothiogatain for 2 days, and then the cells were subjected to chromatin immunoprecipitation with an anti-GATA3 antibody.
# The Magna ChIP Chromatin Immunoprecipitation Kit was used for the ChIP assay according to the manufacturer’s protocol (Merck-Millipore). Anti-GATA3 antibody (Cat#AF2605, R&D systems) was used for chromatin immunoprecipitation. The specific primers for the Th2 cytokine gene locus and the Roche Universal probes were used as follows: the VA site in the IL-4 enhancer: 5′-[…]-3′ (forward), 5′-[…]-3′ (reverse), probe #4; IL-4 IE: 5′-[…]-3′ (forward), 5′-AAATCCGAAACTGA GGAGTGC-3′ (reverse), probe #75; CGRE: 5′-CTCTCCTGGTGGCGTGTT-3′ (forward), 5′-CTTTGCGCACCCTTGAAC-3′ (reverse), probe #53; and IL-5p: 5′-[…]-3′ (forward), 5′-[…]-3′ (reverse), probe #43;
# GATA4 = target: T1, GATA4 (Homo sapiens, UniProt P43694); experiment: AlphaScreen DNA-binding assay, GATA4; conditions: pyrrothiogatain 0 to 200 µM
# T1 construct: we tried to synthesize their full-length proteins using the cell-free system; made in house; host or cells: wheat cell-free protein synthesis system (WEPRO1240 kit)
# Procedure: (§1) For the protein-DNA binding assay on a 384-well AlphaPlate (Perkin Elmer), 10 μL of bait protein mixture containing 1 µL FLAG-tagged protein in AlphaScreen Buffer (100 mM Tris-HCl (pH 8.0), 150 mM NaCl, 0.1% Tween 20, and 1 mg/mL BSA) and 5 µL biotinylated oligonucleotide (0–10 µM final concentration) in AlphaScreen Buffer were dispended into the AlphaPlate. Then, the plate was incubated at 26 °C for 1 h. After incubation, 10 μL of the detection mixture containing 0.4 µg/mL Anti-DYKDDDDK antibody (1E6, Wako), 0.1 μL streptavidin-conjugated AlphaScreen donor beads, and 0.1 μL protein A-conjugated AlphaScreen acceptor beads in AlphaScreen Buffer was mixed and incubated at 26 °C for 1 h, and then, the AlphaScreen signal was detected using an EnVision device with the AlphaScreen signal detection program (PerkinElmer).
# (§2) For the AlphaScreen-based chemical library screening, we used a diverse set of 9,600 synthesized chemicals established by the Drug Discovery Initiative (The University of Tokyo, Tokyo, Japan). All chemical compounds (10 mM) were dissolved in DMSO, and were pre-dispensed into a 384-well Alphaplate (250 nL/well). […] The AlphaScreen signal was detected using an EnVision device with the AlphaScreen signal detection program (PerkinElmer). […]
# GATA2 = target: T2, GATA2 (Homo sapiens, UniProt P23769); experiment: AlphaScreen DNA-binding assay, GATA2; conditions: pyrrothiogatain 0 to 200 µM
# T2 construct: we tried to synthesize their full-length proteins using the cell-free system; made in house; host or cells: wheat cell-free protein synthesis system (WEPRO1240 kit)
# T2 sequence (P23769 1-480): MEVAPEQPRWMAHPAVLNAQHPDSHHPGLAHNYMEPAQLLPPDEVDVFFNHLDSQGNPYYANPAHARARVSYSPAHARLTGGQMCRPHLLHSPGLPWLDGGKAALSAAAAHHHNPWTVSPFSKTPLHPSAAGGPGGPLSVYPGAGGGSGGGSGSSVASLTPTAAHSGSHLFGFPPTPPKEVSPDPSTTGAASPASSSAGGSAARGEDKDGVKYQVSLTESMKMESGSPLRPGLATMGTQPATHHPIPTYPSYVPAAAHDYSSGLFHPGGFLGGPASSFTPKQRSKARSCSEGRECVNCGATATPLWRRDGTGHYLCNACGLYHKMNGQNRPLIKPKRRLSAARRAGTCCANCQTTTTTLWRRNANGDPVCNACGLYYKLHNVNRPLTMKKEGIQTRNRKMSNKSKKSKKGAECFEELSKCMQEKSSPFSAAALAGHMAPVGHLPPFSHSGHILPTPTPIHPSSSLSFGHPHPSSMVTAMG
# Procedure: as §1, §2
# Jurkat cells = experiment: MTS assay (cytotoxicity); type: cell-based; conditions: 0 to 100 µM, 3 days
# Procedure: Jurkat cells were cultured at 37 °C with 5% CO2 in RPMI 1640 Medium (cat#72400047; Thermo Fisher) in the presence or absence of pyrrothiogatain (0 to 100 µM). Cell viability was measured using a CellTiter 96® AQueous One Solution Cell Proliferation Assay (cat#G3582; Promega) according to the manufacturer’s protocol.
# T1 sequence (P43694 whole entry, species assumed): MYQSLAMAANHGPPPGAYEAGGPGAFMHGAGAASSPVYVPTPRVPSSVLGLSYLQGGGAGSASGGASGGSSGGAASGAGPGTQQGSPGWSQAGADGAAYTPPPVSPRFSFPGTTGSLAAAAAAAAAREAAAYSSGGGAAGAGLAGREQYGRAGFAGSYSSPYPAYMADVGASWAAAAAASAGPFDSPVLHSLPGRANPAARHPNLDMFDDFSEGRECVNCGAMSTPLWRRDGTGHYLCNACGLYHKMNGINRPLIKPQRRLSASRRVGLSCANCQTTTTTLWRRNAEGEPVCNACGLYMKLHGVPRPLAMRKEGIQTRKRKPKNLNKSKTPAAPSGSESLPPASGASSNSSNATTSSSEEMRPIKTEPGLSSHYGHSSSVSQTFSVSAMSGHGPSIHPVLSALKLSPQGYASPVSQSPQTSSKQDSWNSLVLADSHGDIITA
compound,measurement,setting,value
"Cc1ccc(C)n1-c1ccsc1C(=O)O [Pyrrothiogatain, 3-(2,5-dimethyl-1H-pyrrol-1-yl)thiophene-2-carboxylic acid]","GATA3 binding to the IL-4 VA enhancer, IL-4 intron enhancer, CGRE and IL-5 promoter regions",[1],repressed
same,IC50,GATA4,~50 µM and 48 µM
same,IC50,GATA2,~50 µM and 45 µM
same,Cell viability,Jurkat cells,did not influence cell viability
